Data published in PubChem BioAssay AID2060624 (Molecular Pharmacology Branch, DTP, NCI, 2025).

Test system: 217524-143-R1-J4-PDC spheroids with HUVEC/MSC, viability
Assay: Anticancer human tumor 217524-143-R1-J4-PDC patient-derived pancreatic carcinoma cell line growth inhibition [CLK]
Details: for IC50: curve of first compound; for viability, T/C: stronger effect = lower value
Excerpt: A high-throughput screen of multi-cell type tumor spheroids was designed to identify active combinations of […] and targeted small molecules. Complex spheroids include a stromal component modeled by human endothelial cells (HUVEC) and fibroblasts modeled by human mesenchymal stem cells (MSCs). The concentration ranges selected for each drug and investigational agent were based upon clinically achievable concentrations if the clinical Cmax of the agent was known.
Compounds. The drugs and investigational agents: cirtuvivint (SM08502; NSC835563), CC-671 (NSC850746), vemurafenib (NSC761431), tapotoclax (NSC804041), sotorasib (NSC818433), adagrasib (NSC831453), MRTX-1133 (NSC836407), BAY2416964 (NSC825713), copanlisib (NSC816437), inavolisib (NSC800729), abemaciclib (NSC768073), osimertinib (NSC779217), entinostat (NSC756642), eltanexor (KPT-8602, NSC794443), venetoclax (NSC766270), ceralasertib (NSC777638), bortezomib (NSC756655), olaparib (NSC753686), talazoparib (NSC767125), alisertib (NSC759677), peposertib (NSC802822), gemcitabine (NSC613327), 5-fluorouracil (NSC19893), SN-38 (NSC673596), oxaliplatin (NSC266046), paclitaxel (NSC125973), and doxorubicin (NSC123127), were obtained from the National Cancer Institute (NCI) Developmental Therapeutics Program Chemical Repository. The FDA-approved anticancer drug set is available from the Developmental Therapeutics Program at https://dtp.cancer.gov/organization/dscb/obtaining/available plates.htm. […] The stock solutions were prepared in dimethyl sulfoxide (DMSO, Sigma-Aldrich, St. Louis, MO, cat. D2650), except for the platinum complexes which were prepared in saline (Quality Biological, Gaithersburg, MD, cat. 114-055-101), at 800-fold the tested concentration and stored at -70 degrees C prior to their use. All drugs and investigational agents were tested over a range starting from a high concentration at or near the clinical Cmax and decreasing in half-log increments. If the clinical Cmax for an agent had not been determined, the highest concentration tested was 10 microM.
Cell Culture. All cells were maintained in an incubator at 37 degrees C and 5% CO2 with 95% humidity. The PDC lines were cultured according to standard operating procedures established by the NCI PDMR. Briefly, all PDCs were thawed and cultured in Matrigel-coated flasks prepared with a working solution of 1X Ham's F-12 nutrient mix, without supplementation (Invitrogen, Waltham, MA, cat. 11765054), 100 U/mL penicillin-streptomycin (Invitrogen, cat. 15140122), and 2.5% Matrigel (Corning Inc., Corning, NY, cat. 354248) for the first three passages. The 947758-054-R-J2-PDC line was cultured in 6B/Colon 1A media, which includes advanced DMEM/F-12 (Thermo Fisher Scientific, cat. 12634028), 10 mM HEPES (Thermo Fisher Scientific, cat. 15630080), 1X GlutaMAX supplement (Thermo Fisher Scientific, cat. 35050061), 0.1 mg/mL primocin (InvivoGen, cat. ant-pm-2), 10% defined fetal bovine serum, heat inactivated (HyClone Laboratories Inc., cat. SH30070.03HI), 1.25 mM N-Acetyl-L-cysteine (Sigma-Aldrich, cat. A9165), 10 mM nicotinamide (Sigma-Aldrich, cat. N0636), 1X B-27 supplement (Thermo Fisher Scientific, cat. 17504044), 1X N-2 supplement (Thermo Fisher Scientific, cat. 17502048), and 10 microM Y-27632 dihydrochloride (Tocris Bioscience, cat. 1254). The 876862-298-R-J1-PDC was cultured in 6E media, which includes all 6B/Colon 1A media components plus 50% L-WRN conditioned media (ATCC, cat. CRL-3276), 50 ng/mL recombinant human EGF recombinant protein (hEGF; Thermo Fisher Scientific, cat. PHG0311), 10 ng/mL recombinant human fibroblast growth factor 10 (hGFG-10; PeproTech, cat. 100-26), 1 ng/mL recombinant human fibroblast growth factor 2 (hFGF-2; PeproTech, cat. 100-18B), and 1 µM prostaglandin E2 (PGE2; Tocris, cat. 2296). The 227483-062-R1-J1-PDC line was cultured in Panc media, containing all 6E components except hFGF-2, with the addition of 500 nM SB-431542 (Selleckchem, cat. S1067) and 10 nM gastrin (Tocris, cat. 3006). […]

[1] = second compound 0.0316 µM, first compound 0.0316 µM
[2] = second compound 0.0316 µM, first compound 0.1 µM
[3] = second compound 0.0316 µM, first compound 0.316 µM
[4] = second compound 0.0316 µM, first compound 1 µM
[5] = second compound 0.0316 µM, first compound 3.16 µM
[6] = second compound 0.0316 µM, first compound 10 µM
[7] = second compound 0.1 µM, first compound 0.0316 µM
[8] = second compound 0.1 µM, first compound 0.1 µM
[9] = second compound 0.1 µM, first compound 0.316 µM
[10] = second compound 0.1 µM, first compound 1 µM
[11] = second compound 0.1 µM, first compound 3.16 µM
[12] = second compound 0.1 µM, first compound 10 µM
[13] = second compound 0.316 µM, first compound 0.0316 µM
[14] = second compound 0.316 µM, first compound 0.1 µM
[15] = second compound 0.316 µM, first compound 0.316 µM
[16] = second compound 0.316 µM, first compound 1 µM
[17] = second compound 0.316 µM, first compound 3.16 µM
[18] = second compound 0.316 µM, first compound 10 µM
[19] = second compound 1 µM, first compound 0.0316 µM
[20] = second compound 1 µM, first compound 0.1 µM
[21] = second compound 1 µM, first compound 0.316 µM
[22] = second compound 1 µM, first compound 1 µM
[23] = second compound 1 µM, first compound 3.16 µM
[24] = second compound 1 µM, first compound 10 µM
[25] = second compound 3.16 µM, first compound 0.0316 µM
[26] = second compound 3.16 µM, first compound 0.1 µM
[27] = second compound 3.16 µM, first compound 0.316 µM
[28] = second compound 3.16 µM, first compound 1 µM
[29] = second compound 3.16 µM, first compound 3.16 µM
[30] = second compound 3.16 µM, first compound 10 µM
[31] = second compound 10 µM, first compound 0.0316 µM
[32] = second compound 10 µM, first compound 0.1 µM
[33] = second compound 10 µM, first compound 0.316 µM
[34] = second compound 10 µM, first compound 1 µM
[35] = second compound 10 µM, first compound 3.16 µM
[36] = second compound 10 µM, first compound 10 µM
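Note: spheroids exposed to agents for seven days before reading.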
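Throughout, for viability, T/C: 100% = DMSO vehicle control viability.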

CCCS(=O)(=O)Nc1ccc(F)c(C(=O)c2c[nH]c3ncc(-c4ccc(Cl)cc4)cc23)c1F + CN1CCN(c2cc(C(=O)Nc3cc4cc(-c5cnn(C)c5)ccc4cn3)ccn2)CC1
IC50 (second compound 0.0316 µM): > 10000 nM | IC50 (second compound 0.1 µM): > 10000 nM | IC50 (second compound 0.316 µM): < 31.6 nM | IC50 (second compound 1 µM): < 31.6 nM | IC50 (second compound 3.16 µM): < 31.6 nM | IC50 (second compound 10 µM): < 31.6 nM | viability, T/C [1]: 86.3% | viability, T/C [2]: 69.2% | viability, T/C [3]: 107% | viability, T/C [4]: 124% | viability, T/C [5]: 135% | viability, T/C [6]: 61.4% | viability, T/C [7]: 61.4% | viability, T/C [8]: 67.7% | viability, T/C [9]: 62.4% | viability, T/C [10]: 78.8% | viability, T/C [11]: 100% | viability, T/C [12]: 44.4% | viability, T/C [13]: 26.1% | viability, T/C [14]: 26.4% | viability, T/C [15]: 33.3% | viability, T/C [16]: 32.9% | viability, T/C [17]: 34.9% | viability, T/C [18]: 19.9% | viability, T/C [19]: 2.26% | viability, T/C [20]: 2.37% | viability, T/C [21]: 2.29% | viability, T/C [22]: 3.2% | viability, T/C [23]: 2.09% | viability, T/C [24]: 2.01% | viability, T/C [25]: 0.92% | viability, T/C [26]: 0.96% | viability, T/C [27]: 1.2% | viability, T/C [28]: 1.02% | viability, T/C [29]: 1.17% | viability, T/C [30]: 0.97% | viability, T/C [31]: 0.29% | viability, T/C [32]: 0.32% | viability, T/C [33]: 0.65% | viability, T/C [34]: 0.3% | viability, T/C [35]: 1.04% | viability, T/C [36]: 1.34%

COC1C=CCC(C)C(C)S(=O)(=O)NC(=O)c2ccc3c(c2)N(CC2CCC21)CC1(CCCc2cc(Cl)ccc21)CO3 (centres undefined) + CN1CCN(c2cc(C(=O)Nc3cc4cc(-c5cnn(C)c5)ccc4cn3)ccn2)CC1
IC50 (second compound 0.0316 µM): 6400 nM | IC50 (second compound 0.1 µM): 4170 nM | IC50 (second compound 0.316 µM): < 31.6 nM | IC50 (second compound 1 µM): < 31.6 nM | IC50 (second compound 3.16 µM): < 31.6 nM | IC50 (second compound 10 µM): < 31.6 nM | viability, T/C [1]: 90.2% | viability, T/C [2]: 93.2% | viability, T/C [3]: 75% | viability, T/C [4]: 91.2% | viability, T/C [5]: 107% | viability, T/C [6]: 23.8% | viability, T/C [7]: 65.7% | viability, T/C [8]: 67.5% | viability, T/C [9]: 56% | viability, T/C [10]: 61.4% | viability, T/C [11]: 58.5% | viability, T/C [12]: 24.5% | viability, T/C [13]: 23.9% | viability, T/C [14]: 23.3% | viability, T/C [15]: 23.3% | viability, T/C [16]: 22.9% | viability, T/C [17]: 27% | viability, T/C [18]: 16.6% | viability, T/C [19]: 2.49% | viability, T/C [20]: 1.84% | viability, T/C [21]: 1.71% | viability, T/C [22]: 1.6% | viability, T/C [23]: 1.08% | viability, T/C [24]: 1.77% | viability, T/C [25]: 0.91% | viability, T/C [26]: 1.31% | viability, T/C [27]: 0.81% | viability, T/C [28]: 1% | viability, T/C [29]: 1.26% | viability, T/C [30]: 0.8% | viability, T/C [31]: 1.26% | viability, T/C [32]: 0.35% | viability, T/C [33]: 0.37% | viability, T/C [34]: 0.37% | viability, T/C [35]: 0.36% | viability, T/C [36]: 1.06%
